Measurements taken from ChEMBL document CHEMBL5214928, “DEAD-Box Helicase DDX3X as a Host Target against Emerging Viruses: New Insights for Medicinal Chemical Approaches” (J Med Chem, 2022).

Tests used:
[1] = target: T1, ATP-dependent RNA helicase DDX3X (Homo sapiens, UniProt O00571); assay: Binding affinity to DDX3X (unknown origin) assessed as inhibition constant
Hepatitis C virus [2] = assay: Antiviral activity against HCV-1 infected in human Huh-7 cells assessed as reduction in viral replication; assay type: functional, organism-based, Hepacivirus hominis; conditions: genotype 1, Huh-7
Huh-7 = assay: Cytotoxicity against human Huh-7 cells assessed as reduction in cell viability; assay type: functional
[3] = Selectivity index, ratio of CC50 for human Huh-7 cells to EC50 for HCV-1 infected in human Huh-7 cells; assay type: toxicity, cell-based; conditions: read-out: Ratio CC50/EC50
dengue virus type 2 = assay: Antiviral activity against DENV-2 infected in African green monkey Vero cells assessed as reduction in viral replication incubated for 22 hrs by plaque assay; assay type: functional, organism-based
[4] = Cytotoxicity against African green monkey Vero cells assessed as reduction in cell viability incubated for 22 hrs by XTT assay; assay type: toxicity, cell-based; conditions: chlorocebus sabaeus
[5] = Selectivity index, ratio of CC50 for African green monkey Vero cells to EC50 for DENV-2 infected in African green monkey Vero cells; assay type: toxicity; conditions: read-out: Ratio CC50/EC50
Zika virus = assay: Antiviral activity against ZIKV infected in African green monkey Vero cells assessed as reduction in viral replication incubated for 22 hrs by plaque assay; assay type: functional, organism-based
West Nile virus [6] = assay: Antiviral activity against WNV infected in African green monkey Vero cells assessed as reduction in viral replication incubated for 22 hrs by plaque formation assay; assay type: functional, organism-based
[7] = Selectivity index, ratio of CC50 for African green monkey Vero cells to EC50 for ZIKV infected in African green monkey Vero cells; assay type: toxicity; conditions: read-out: Ratio CC50/EC50
[8] = Selectivity index, ratio of CC50 for African green monkey Vero cells to EC50 for WNV infected in African green monkey Vero cells; assay type: toxicity; conditions: read-out: Ratio CC50/EC50
SARS-CoV-2 = assay: Antiviral activity against SARS-CoV-2 isolate 2019-nCoV/Italy-INMI1 infected in African green monkey Vero E6 cells assessed as reduction in viral replication at MOI of 0.01 incubated for 5 days by qRT-PCR analysis; assay type: functional, organism-based; conditions: Severe acute respiratory syndrome coronavirus 2, 2019-nCoV/Italy-INMI1, Vero C1008, 120 h
[9] = Cytotoxicity against African green monkey Vero E6 cells assessed as reduction in cell viability; assay type: toxicity, cell-based, Vero C1008; conditions: chlorocebus sabaeus
[10] = test system: Respiratory syncytial virus; assay: Antiviral activity against RSV infected in African green monkey Vero cells assessed as reduction in viral replication incubated for 22 hrs by plaque formation assay; assay type: functional, organism-based; conditions: human respiratory syncytial virus
[11] = Selectivity index, ratio of CC50 for African green monkey Vero cells to EC50 for RSV infected in African green monkey Vero cells; assay type: toxicity; conditions: read-out: Ratio CC50/EC50
Human respirovirus 3 = assay: Antiviral activity against hPIV-3 infected in African green monkey Vero cells assessed as reduction in viral replication incubated for 22 hrs by plaque formation assay; assay type: functional, organism-based; conditions: Human respirovirus 3, Vero
[12] = Selectivity index, ratio of CC50 for African green monkey Vero cells to EC50 for hPIV-3 infected in African green monkey Vero cells; assay type: toxicity; conditions: read-out: Ratio CC50/EC50
[13] = Half life in mouse administered intraperitoneally; assay type: ADME; conditions: in vivo, route ip
[14] = test system: Japanese encephalitis virus; assay: Antiviral activity against JEV SA14-14-2 infected in hamster BHK-21 cells assessed as reduction in viral replication by plaque formation assay; assay type: functional, organism-based; conditions: SA14-14-2, BHK-21
[15] = Cytotoxicity against hamster BHK-21 cells assessed as reduction in cell viability at MOI of 0.01 incubated for 48 hrs by plaque formation assay; assay type: toxicity, cell-based, Mesocricetus auratus
[16] = Selectivity index, ratio of CC50 for hamster BHK-21 cells to EC50 for JEV SA14-14-2 infected in hamster BHK-21 cells; assay type: toxicity, cell-based; conditions: read-out: Ratio CC50/EC50
[17] = target: T1, ATP-dependent RNA helicase DDX3X; assay: Inhibition of recombinant DDX3X (unknown origin) helicase activity using 6-FAM-labeled dsRNA as substrate incubated for 30 mins by fluorescence based assay
[18] = test system: Human immunodeficiency virus 1; assay: Antiviral activity against recombinant HIV-1 infected in CD4+ human HeLa cells assessed as reduction in viral replication; assay type: functional, organism-based; conditions: Human immunodeficiency virus 1, HeLa
HeLa = assay: Cytotoxicity against human HeLa cells assessed as reduction in cell viability incubated for 72 hrs with replacement of medium containing compound for every 24 hrs by MTS based Cell Titer 96 viability assay; assay type: functional
[19] = Selectivity index, ratio of CC50 for human HeLa cells to EC50 for recombinant HIV-1 infected in CD4+ human HeLa cells; assay type: toxicity, cell-based; conditions: read-out: Ratio CC50/EC50
[20] = target: T1, ATP-dependent RNA helicase DDX3X; assay: Inhibition of DDX3X (unknown origin) helicase activity
Hepatitis C virus [21] = assay: Antiviral activity against HCV-1 infected in human LucUbiNeo-ET cells assessed as reduction in viral replication incubated for 2 days by luminometry; assay type: functional, organism-based, Hepacivirus hominis; conditions: genotype 1, LucUbiNeo-ET, 48 h
[22] = Cytotoxicity against human LucUbiNeo-ET cells assessed as reduction in cell viability by MTT assay; assay type: functional
[23] = Selectivity index, ratio of CC50 for human LucUbiNeo-ET cells to EC50 for HCV-1 infected in human LucUbiNeo-ET cells; assay type: toxicity, cell-based; conditions: read-out: Ratio CC50/EC50
[24] = Half life in mouse administered intravenously; assay type: ADME; conditions: in vivo, route iv
Hepatitis C virus [25] = assay: Antiviral activity against HCV-1 infected in hepatoma cells (unknown origin) assessed as reduction in viral replication; assay type: functional, organism-based, Hepacivirus hominis; conditions: genotype 1, Hepatoma cell line
Hepatoma cell line = assay: Cytotoxicity against hepatoma cells (unknown origin) assessed as reduction in cell viability; assay type: functional
[26] = Selectivity index, ratio of CC50 for hepatoma cells (unknown origin) to EC50 for HCV-1 infected in hepatoma cells (unknown origin); assay type: toxicity, cell-based; conditions: read-out: Ratio CC50/EC50
West Nile virus [27] = assay: Antiviral activity against WNV infected in human Huh-7 cells assessed as reduction in viral replication; assay type: functional, organism-based
[28] = Selectivity index, ratio of CC50 for human Huh-7 cells to EC50 for WNV infected in human Huh-7 cells; assay type: toxicity, cell-based; conditions: read-out: Ratio CC50/EC50
[29] = test system: Human immunodeficiency virus 1; assay: Antiviral activity against HIV-1 NL4-3 infected in human H9 cells assessed as reduction in viral replication at MOI of 0.03 measured after 48 hrs by Bright-Glo Luciferase Assay; assay type: functional, organism-based; conditions: Human immunodeficiency virus 1, NL4-3, H9, 48 h
H9 = assay: Cytotoxicity against human H9 cells assessed as reduction in cell viability incubated for 72 hrs by luciferase based assay; assay type: functional
[30] = Selectivity index, ratio of CC50 for human H9 cells to EC50 for HIV-1 NL4-3 infected in human H9 cells; assay type: toxicity, cell-based; conditions: read-out: Ratio CC50/EC50

T1 sequence (O00571 whole entry): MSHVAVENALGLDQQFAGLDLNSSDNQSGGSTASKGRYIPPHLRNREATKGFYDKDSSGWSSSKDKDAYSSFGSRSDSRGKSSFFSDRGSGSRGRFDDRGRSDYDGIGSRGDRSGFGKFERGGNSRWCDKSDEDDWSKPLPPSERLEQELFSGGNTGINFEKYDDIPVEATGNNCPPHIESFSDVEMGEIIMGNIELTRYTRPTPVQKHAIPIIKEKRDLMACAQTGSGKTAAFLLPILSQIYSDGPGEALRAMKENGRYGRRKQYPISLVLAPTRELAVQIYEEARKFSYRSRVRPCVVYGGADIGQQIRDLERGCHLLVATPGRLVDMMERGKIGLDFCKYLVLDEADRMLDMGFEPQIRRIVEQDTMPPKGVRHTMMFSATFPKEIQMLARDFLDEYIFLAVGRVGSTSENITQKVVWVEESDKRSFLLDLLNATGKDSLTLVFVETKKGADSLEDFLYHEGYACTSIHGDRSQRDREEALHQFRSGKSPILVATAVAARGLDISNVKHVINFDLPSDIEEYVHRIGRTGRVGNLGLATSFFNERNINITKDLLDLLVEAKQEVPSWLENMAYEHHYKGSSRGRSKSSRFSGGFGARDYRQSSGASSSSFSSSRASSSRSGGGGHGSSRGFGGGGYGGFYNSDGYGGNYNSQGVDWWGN

Compound: COc1cc(/C=C2\SC(=S)N(CCC(=O)Nc3ccccc3O)C2=O)cc(OC)c1OC
- Ki [1]: 3.9 µM

Compound: COc1ccc(/C=C2\SC(=S)N(CCC(=O)Nc3cccc(O)c3)C2=O)cc1
- Ki [1]: 2 µM

Compound: COc1ccc(Cn2c3ncnc4c(ncn4Cc4ccc(OC)cc4)c-3nc2=O)cc1
- EC50 (Hepatitis C virus [2]): 2 µM
- CC50 (Huh-7): < 10 µM
- selectivity ratio [3]: < 5
- EC50 (dengue virus type 2): 8.5 µM
- CC50 at 22 h [4]: 29.7 µM
- selectivity ratio [5]: 3.5
- EC50 (Zika virus): 7 µM
- EC50 (West Nile virus [6]): 8.5 µM
- selectivity ratio [7]: 4.2
- selectivity ratio [8]: 3.5
- EC50 (SARS-CoV-2): < 5 µM
- CC50 [9]: > 30 µM
- EC50 [10]: 13.4 µM
- selectivity ratio [11]: 2.2
- EC50 (Human respirovirus 3): 28.2 µM
- selectivity ratio [12]: 1
- half-life [13]: 7 h

Compound: Cc1ccccc1NC(=O)Nc1cccc([N+](=O)[O-])c1
- EC50 [14]: 10 µM
- CC50 at 48 h [15]: > 50 µM
- selectivity ratio [16]: > 5

Compound: O=[N+]([O-])c1cccc(S(=O)(=O)Nc2ccccc2O)c1
- IC50 [17]: 0.36 µM

Compound: O=C(CCN1C(=O)/C(=C/c2cccc(Br)c2)SC1=S)Nc1cccc(O)c1
- Ki [1]: 90 µM

Compound: OCCc1cc(Nc2ccc(F)cc2)nc(N/N=C/c2ccccc2O)n1
- EC50 [18]: 6.5 µM
- CC50 (HeLa): 65 µM
- selectivity ratio [19]: 10

Compound: Oc1ccccc1/C=N/Nc1nc(Nc2cccc(Cl)c2)nc(NN2CCOCC2)n1
- Ki [1]: 0.4 µM

Compound: COc1cccc(NC(=O)CCN2C(=O)/C(=C/c3ccccc3O)SC2=S)c1
- Ki [1]: 10 µM

Compound: Cc1ccccc1NC(=O)Nc1ccc(-n2cc(CO)nn2)cc1
- Ki [20]: 17.5 µM

Compound: C(=N\Nc1nc(Nc2ccccc2)nc(Nc2ccccc2)n1)/c1ccccc1
- Ki [1]: 7.5 µM

Compound: CC(C)Cc1cn(-c2ccc(NC(=O)Nc3ccc4cnccc4c3)cc2)nn1
- IC50 [20]: 0.15 µM
- EC50 (Hepatitis C virus [21]): 0.9 µM
- CC50 [22]: > 312 µM
- selectivity ratio [23]: 94
- half-life [24]: 5 h

Compound: CCCCCCCCCCCCCCCCCCNC1=NC(=O)C2C(N=CN2[C@@H]2O[C@H](CO)[C@@H](O)[C@H]2O)C(=O)N1 (some centres undefined)
- EC50 (Hepatitis C virus [25]): 18 µM
- CC50 (Hepatoma cell line): > 630 µM
- selectivity ratio [26]: > 35
- CC50 (Huh-7): > 100 µM
- EC50 (West Nile virus [27]): 0.51 µM
- selectivity ratio [28]: > 195

Compound: Oc1ccc(Cl)cc1/C=N/Nc1nc(NCc2ccccc2)nc(NN2CCOCC2)n1
- Ki [1]: 1.9 µM

Compound: COc1cc(/C=C2\SC(=S)N(CCC(=O)Nc3ccccc3Cl)C2=O)cc(OC)c1OC
- Ki [1]: 0.1 µM

Compound: COc1ccc(/C=C2\SC(=S)N(CCC(=O)Nc3ccccc3OC)C2=O)cc1
- Ki [1]: 11 µM

Compound: O=[N+]([O-])c1cccc(/C=N/Nc2nc(NCc3ccccc3)nc(NNc3ccc(F)cc3)n2)c1O
- Ki [1]: 4 µM

Compound: O=C(CCN1C(=O)/C(=C/c2ccc3c(c2)OCO3)SC1=S)Nc1ccccc1[N+](=O)[O-]
- Ki [1]: 1 µM

Compound: O=C(NCCN1C(=O)/C(=C/c2ccccc2O)SC1=S)c1cccc(Br)c1
- Ki [1]: 4.2 µM

Compound: O=C(O)c1cc(Nc2nc3ccccc3[nH]2)ccc1O
- IC50 [17]: 0.2 µM

Compound: Cc1ccc(Nc2nc(N/N=C/c3ccccc3O)nc(NN3CCOCC3)n2)cc1Cl
- Ki [1]: 1.6 µM

Compound: CCCCc1cn(-c2ccc(NC(=O)Nc3ccccc3C(F)(F)F)cc2)nn1
- half-life [13]: 5 h

Compound: CCCCc1cn(-c2ccc(NC(=O)Nc3ccccc3OC3CCCC3)cc2)nn1
- IC50 [20]: 0.14 µM

Compound: CC(C)Cc1cn(-c2ccc(NC(=O)Nc3ccccc3F)cc2)nn1
- IC50 [20]: 0.12 µM

Compound: Cc1cccc(NC(=O)CCN2C(=O)/C(=C/c3ccccc3O)SC2=S)c1
- Ki [1]: 97 µM

Compound: Oc1ccccc1/C=N/Nc1nc(NCc2ccccc2)nc(NN2CCOCC2)n1
- Ki [1]: 0.6 µM

Compound: O=C1S/C(=C\c2c(NCCO)nc3ccccn3c2=O)C(=O)N1CCc1ccccc1
- Ki [1]: 0.2 µM

Compound: CCN(CC)Nc1nc(N/N=C/c2ccccc2O)nc(Nc2ccccc2)n1
- Ki [1]: 0.1 µM

Compound: CC(=O)Nc1ccc(/C=N/Nc2nc(Nc3ccccc3)nc(Nc3ccccc3)n2)cc1
- Ki [1]: 0.3 µM
- EC50 [18]: 2 µM
- CC50 (HeLa): 10 µM
- selectivity ratio [19]: 5

Compound: O=C(CCN1C(=O)/C(=C/c2cccc(F)c2)SC1=S)Nc1ccccc1O
- Ki [1]: 7.6 µM

Compound: CCCCc1cn(-c2ccc(NC(=O)Nc3ccccc3F)cc2)nn1
- IC50 [20]: 0.6 µM

Compound: O=C(CCN1C(=O)/C(=C/c2ccccc2O)SC1=S)Nc1cc(F)cc(F)c1
- Ki [1]: 0.5 µM

Compound: CCCCc1cn(-c2ccc(NC(=O)Nc3ccc(C)nc3)cc2)nn1
- IC50 [20]: 1.5 µM

Compound: CC(=O)Nc1ccc(/C=N/Nc2nc(NCc3ccccc3)nc(Nc3ccccc3)n2)cc1
- Ki [1]: 0.5 µM

Compound: CC(=O)Nc1ccc(/C=N/Nc2nc(Nc3ccccc3)nc(NN3CCOCC3)n2)cc1
- Ki [1]: 2.2 µM

Compound: O=C(CCN1C(=O)/C(=C/c2ccccc2O)SC1=S)Nc1cccc(F)c1
- Ki [1]: 0.3 µM
- EC50 [18]: 7.5 µM
- CC50 (HeLa): 50 µM
- EC50 (SARS-CoV-2): < 5 µM
- CC50 [9]: > 100 µM
- selectivity ratio [19]: 7

Compound: CC(C)Cc1cn(-c2ccc(NC(=O)Nc3cccc(F)c3)cc2)nn1
- IC50 [20]: 0.2 µM

Compound: O=C(NCCN1C(=O)/C(=C/c2ccccc2O)SC1=S)c1cccc(F)c1
- Ki [1]: 4.3 µM

Compound: Oc1ccccc1/C=N/Nc1nc(NCc2ccc(F)cc2)nc(NN2CCOCC2)n1
- Ki [1]: 0.7 µM

Compound: O=C(O)c1ccccc1C(=O)Nc1nnc(-c2ccc(O)cc2)s1
- EC50 [29]: 2.8 µM
- CC50 (H9): 125 µM
- selectivity ratio [30]: 45
